Data taken from publication PMC5505244, “Crystal structure of a family 6 cellobiohydrolase from the basidiomycete Phanerochaete chrysosporium” (Acta Crystallographica. Section F, Structural Biology …, 2017).

How the values were obtained:
PcCel6A [1] = molecular target: T1, PcCel6A (Phanerodontia chrysosporium, UniProt Q02321); test: X-ray crystal structure, […] Å; format: binding; conditions: crystal soaked with pNPG3 for 10 h, pH 5.0; active site, subsites +1 and +2; loops closed; putative Tris at subsite -1
T1 construct: gene cbhII; catalytic domain only; N-terminal CBM and linker (residues 1-81) deleted; pPICZalpha vector, secreted from Pichia pastoris; about 37 kDa; nonglycosylated in crystal; model residues 82-439; one molecule in asymmetric unit

PcCel6A [2] = molecular target: T1, PcCel6A; test: hydrolysis in crystal soak, inferred from bound product in X-ray structure; format: biochemical; conditions: pH 5.0, 10 h soak; intact compound not seen in the structure

T1 sequence (Q02321 entry or part of it): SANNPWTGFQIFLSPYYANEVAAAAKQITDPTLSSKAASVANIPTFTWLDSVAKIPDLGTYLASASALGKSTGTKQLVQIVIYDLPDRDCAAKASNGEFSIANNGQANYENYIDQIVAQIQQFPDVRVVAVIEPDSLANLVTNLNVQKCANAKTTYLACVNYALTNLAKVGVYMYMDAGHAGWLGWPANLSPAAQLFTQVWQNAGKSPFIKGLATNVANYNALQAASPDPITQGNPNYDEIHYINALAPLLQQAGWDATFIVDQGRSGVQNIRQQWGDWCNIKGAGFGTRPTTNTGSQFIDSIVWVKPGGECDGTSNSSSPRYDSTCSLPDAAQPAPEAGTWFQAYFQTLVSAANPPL

| SMILES | X-ray crystal structure, 2.1 Å (PcCel6A [1]) | hydrolysis in crystal soak, inferred from bound product in X-ray structure (PcCel6A [2]) |
| --- | --- | --- |
| OC[C@H]1O[C@@H](O[C@H]2[C@H](O)[C@@H](O)[C@@H](O)O[C@@H]2CO)[C@H](O)[C@@H](O)[C@@H]1O [α-cellobiose] | The ligand-bound structure obtained from the pNPG3-soaked crystal contained one α-cellobiose molecule | – |
| O=[N+]([O-])c1ccc(O[C@@H]2O[C@H](CO)[C@@H](O[C@@H]3O[C@H](CO)[C@@H](O[C@@H]4O[C@H](CO)[C@@H](O)[C@H](O)[C@H]4O)[C@H](O)[C@H]3O)[C@H](O)[C@H]2O)cc1 [p-nitrophenyl β-D-cellotrioside] | – | The observed α-cellobiose is considered to be a product of the hydrolysis of pNPG3 |
